Laboratory results as given in patent publication US8557847B2, “Synergistic modulation of FLT3 kinase using a FLT3 inhibitor and a farnesyl transferase inhibitor” (Janssen Pharmaceutica, N.V., priority 2005, dated 2013).
Counter-ions that a name gives are not always drawn.

What was measured:
[1] = system: Baf3-FLT3 cells stimulated with FLT ligand; experiment: 72-hour cell proliferation assay, single agents and FTI/FLT3 inhibitor combinations, Baf3-FLT3; format: cell-based, murine; details: with single sub-IC50 dose of FLT3 inhibitor Compound A (100 nM)
Description: Dose responses for the individual compounds alone were determined for each cell line using a standard 72-hour cell proliferation assay (see FIGS. 6.1-6.8). The standard chemotherapeutic agent Cytarabine was used as a control cytotoxic agent in all experiments. […] The FLT3 inhibitors, Compounds A, B, C, D, E, F G and H, individually have good potency (sub-micromolar) for the inhibition of FLT3 driven proliferation (compared to the first line cytotoxic agent Cytarabine and Tipifarnib) in cells that depend on FLT3 for growth. Each of these chemically distinct compounds alone has potential for the treatment of disorders related to FLT3, such as FLT3 positive AML. […]
To statistically evaluate the synergy of a FLT3 inhibitor and an FTI in FLT3 dependent cell lines, dosing combinations were evaluated by the method of Chou and Talalay. See Chou T C, Talalay P. (1984) “Quantitative analysis of dose-effect relationships: the combined effects of multiple drugs or enzyme inhibitors.” Adv Enzyme Regul. […] Using this method, multiple FTI and FLT3 combinations were evaluated. […]
Cell proliferation assay for MV4-11, Baf3-ITD, Baf3-FLT3 and THP-1 cells. […] Total cell growth is quantified as the difference in luminescent counts (relative light units, RLU) of cell number at Day 0 compared to total cell number at Day 3 (72 hours of growth and/or compound treatment). […]

[2] = target: T1, isolated kinase domain of the human FLT3 receptor (a.a. 571-993) (Homo sapiens, UniProt P36888); experiment: FLT3 fluorescence polarization kinase assay; format: biochemical; details: 150 uM ATP; uncertainty ±10%; read-out: Flt-3 IC50
T1 construct: human FLT3 receptor (a.a. 571-993)
T1 sequence (P36888 571-993): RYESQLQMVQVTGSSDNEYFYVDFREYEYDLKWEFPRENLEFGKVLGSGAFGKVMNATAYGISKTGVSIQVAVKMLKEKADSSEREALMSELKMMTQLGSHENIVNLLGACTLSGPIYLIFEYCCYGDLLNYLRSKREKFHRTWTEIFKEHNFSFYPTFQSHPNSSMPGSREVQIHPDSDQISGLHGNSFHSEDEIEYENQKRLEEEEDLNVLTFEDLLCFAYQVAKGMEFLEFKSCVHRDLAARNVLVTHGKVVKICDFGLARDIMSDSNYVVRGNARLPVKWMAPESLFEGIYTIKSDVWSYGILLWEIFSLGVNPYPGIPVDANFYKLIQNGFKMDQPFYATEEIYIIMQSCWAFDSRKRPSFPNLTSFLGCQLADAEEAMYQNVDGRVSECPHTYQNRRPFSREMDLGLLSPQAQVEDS
Description: The FLT3 FP assay utilizes the fluorescein-labeled phosphopeptide and the anti-phosphotyrosine antibody included in the Panvera Phospho-Tyrosine Kinase Kit (Green) supplied by Invitrogen. When FLT3 phosphorylates polyGlu4Tyr, the fluorescein-labeled phosphopeptide is displaced from the anti-phosphotyrosine antibody by the phosphorylated poly Glu4Tyr, thus decreasing the FP value. […] The kinase reaction is stopped with the addition of EDTA. The fluorescein-labeled phosphopeptide and the anti-phosphotyrosine antibody are added and incubated for 30 minutes at room temperature.
Data points are an average of triplicate samples. Inhibition and IC50 data analysis was done with GraphPad Prism using a non-linear regression fit with a multiparamater, sigmoidal dose-response (variable slope) equation.

[3] = target: T2, wild-type FLT3 phosphorylation in Baf3 FLT3 cells (Homo sapiens, UniProt P36888); experiment: Cell-based FLT3 receptor ELISA; details: uncertainty ±20%
T2 construct: host or cells: Baf3 (murine B cell lymphoma line)
T2 sequence (P36888 27-993): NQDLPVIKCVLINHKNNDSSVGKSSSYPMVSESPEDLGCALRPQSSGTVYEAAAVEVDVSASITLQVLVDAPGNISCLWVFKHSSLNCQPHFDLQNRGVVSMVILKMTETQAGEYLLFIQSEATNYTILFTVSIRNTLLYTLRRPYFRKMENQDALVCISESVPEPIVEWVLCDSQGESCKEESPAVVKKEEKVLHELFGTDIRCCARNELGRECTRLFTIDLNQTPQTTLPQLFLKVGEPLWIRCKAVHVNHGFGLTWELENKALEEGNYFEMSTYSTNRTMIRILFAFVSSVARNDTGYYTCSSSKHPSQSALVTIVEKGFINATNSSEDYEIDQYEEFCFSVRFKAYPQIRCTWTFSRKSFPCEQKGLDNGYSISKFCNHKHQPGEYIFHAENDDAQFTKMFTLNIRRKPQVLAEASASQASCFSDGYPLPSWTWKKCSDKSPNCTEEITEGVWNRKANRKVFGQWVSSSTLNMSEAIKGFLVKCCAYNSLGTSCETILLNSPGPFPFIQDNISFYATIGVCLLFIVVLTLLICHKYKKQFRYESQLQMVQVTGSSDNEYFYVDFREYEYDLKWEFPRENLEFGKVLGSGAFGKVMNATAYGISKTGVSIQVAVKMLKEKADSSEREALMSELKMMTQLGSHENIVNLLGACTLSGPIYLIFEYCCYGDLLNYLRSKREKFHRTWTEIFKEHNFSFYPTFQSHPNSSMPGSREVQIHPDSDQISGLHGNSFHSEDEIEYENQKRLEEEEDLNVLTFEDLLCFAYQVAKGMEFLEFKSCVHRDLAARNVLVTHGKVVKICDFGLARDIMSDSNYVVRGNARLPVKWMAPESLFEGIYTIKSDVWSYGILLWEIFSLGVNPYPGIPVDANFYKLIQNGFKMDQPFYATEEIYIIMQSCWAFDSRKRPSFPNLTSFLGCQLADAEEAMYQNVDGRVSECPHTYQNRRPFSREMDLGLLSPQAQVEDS
Description: Data points are an average of triplicate samples. […] Leukemia.

Row | SMILES | increase in potency of Tipifarnib [1] | IC50 [2] | IC50 [3]
1 | Cn1cncc1[C@@](N)(c1ccc(Cl)cc1)c1ccc2c(c1)c(-c1cccc(Cl)c1)cc(=O)n2C (single isomer, unassigned) [Tipifarnib, reference compound] | more than 3 fold | – | –
2 | N#Cc1c[nH]c(C(=O)Nc2ccc(C3CCNCC3)cc2C2=CCCCC2)n1 [Compound 14, 4-Cyano-1H-imidazole-2-carboxylic acid (2-cyclohex-1-enyl-4-piperidin-4-yl-phenyl)-amide trifluoroacetic acid salt] | – | 32 nM | 770 nM
